Laboratory results reported in ChEMBL document CHEMBL5723583, “Data for DCP probe BAY-9835” (2024).

Key:
[1] = biological target: A disintegrin and metalloproteinase with thrombospondin motifs 4 (Homo sapiens, UniProt O75173); assay: Biochemical enzymatic FRET assay (hADAMTS4) ( FRET substrate, HiLyteFluor-488 DELSSMVLELRGLRT-K(QXL520)-E-NH2 (custom synthesis by Anaspec) was used.)
[2] = biological target: A disintegrin and metalloproteinase with thrombospondin motifs 7 (Homo sapiens, UniProt Q9UKP4); assay: Biochemical enzymatic FRET assay (hADAMTS7) ( FRET substrate, HiLyteFluor-488 DELSSMVLELRGLRT-K(QXL520)-E-NH2 (custom synthesis by Anaspec) was used.)
A disintegrin and metalloproteinase with thrombospondin motifs 7, sequence (Q9UKP4 whole entry): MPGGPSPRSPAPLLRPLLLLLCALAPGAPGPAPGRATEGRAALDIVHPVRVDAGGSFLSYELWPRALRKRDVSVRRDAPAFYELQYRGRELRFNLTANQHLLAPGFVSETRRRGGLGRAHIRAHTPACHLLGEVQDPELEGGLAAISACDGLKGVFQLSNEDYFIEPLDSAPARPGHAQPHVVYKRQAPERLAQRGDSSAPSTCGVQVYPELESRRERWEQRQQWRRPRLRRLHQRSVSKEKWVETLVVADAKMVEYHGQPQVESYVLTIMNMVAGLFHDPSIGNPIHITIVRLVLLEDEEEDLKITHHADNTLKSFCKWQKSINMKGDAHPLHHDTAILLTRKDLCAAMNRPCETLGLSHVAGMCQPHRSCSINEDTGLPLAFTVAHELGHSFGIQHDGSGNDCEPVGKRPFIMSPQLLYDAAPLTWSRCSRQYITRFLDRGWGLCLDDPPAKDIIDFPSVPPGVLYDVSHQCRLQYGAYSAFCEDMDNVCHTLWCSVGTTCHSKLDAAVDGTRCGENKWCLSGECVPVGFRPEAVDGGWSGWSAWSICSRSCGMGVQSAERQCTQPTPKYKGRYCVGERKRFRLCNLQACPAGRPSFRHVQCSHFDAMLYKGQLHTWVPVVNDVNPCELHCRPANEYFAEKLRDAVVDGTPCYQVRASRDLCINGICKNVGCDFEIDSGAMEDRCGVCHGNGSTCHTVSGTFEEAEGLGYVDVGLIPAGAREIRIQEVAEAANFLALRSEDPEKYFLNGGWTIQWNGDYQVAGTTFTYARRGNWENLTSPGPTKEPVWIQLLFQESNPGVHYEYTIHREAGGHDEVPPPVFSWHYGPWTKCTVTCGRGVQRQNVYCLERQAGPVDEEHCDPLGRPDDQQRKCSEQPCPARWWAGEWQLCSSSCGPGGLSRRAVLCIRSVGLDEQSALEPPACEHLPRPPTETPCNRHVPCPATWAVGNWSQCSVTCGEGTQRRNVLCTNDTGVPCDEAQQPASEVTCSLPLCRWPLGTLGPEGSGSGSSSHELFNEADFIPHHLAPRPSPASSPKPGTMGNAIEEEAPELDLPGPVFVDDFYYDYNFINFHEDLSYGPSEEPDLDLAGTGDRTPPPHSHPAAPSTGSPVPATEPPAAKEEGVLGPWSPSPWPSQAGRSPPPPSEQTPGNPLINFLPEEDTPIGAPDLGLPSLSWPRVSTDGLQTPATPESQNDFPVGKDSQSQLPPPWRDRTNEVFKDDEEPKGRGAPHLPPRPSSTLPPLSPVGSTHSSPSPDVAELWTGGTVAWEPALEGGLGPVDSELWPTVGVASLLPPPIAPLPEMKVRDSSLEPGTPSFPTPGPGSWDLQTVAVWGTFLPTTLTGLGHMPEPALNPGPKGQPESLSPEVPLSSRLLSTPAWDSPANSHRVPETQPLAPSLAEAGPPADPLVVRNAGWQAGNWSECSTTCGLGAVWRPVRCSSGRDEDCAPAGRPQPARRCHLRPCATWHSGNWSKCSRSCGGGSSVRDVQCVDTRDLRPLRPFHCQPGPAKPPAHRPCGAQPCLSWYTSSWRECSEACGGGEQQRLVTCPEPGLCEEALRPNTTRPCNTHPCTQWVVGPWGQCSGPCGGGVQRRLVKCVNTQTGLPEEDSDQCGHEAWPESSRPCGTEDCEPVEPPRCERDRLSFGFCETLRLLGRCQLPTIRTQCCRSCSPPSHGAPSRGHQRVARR

A disintegrin and metalloproteinase with thrombospondin motifs 4, sequence (O75173 whole entry): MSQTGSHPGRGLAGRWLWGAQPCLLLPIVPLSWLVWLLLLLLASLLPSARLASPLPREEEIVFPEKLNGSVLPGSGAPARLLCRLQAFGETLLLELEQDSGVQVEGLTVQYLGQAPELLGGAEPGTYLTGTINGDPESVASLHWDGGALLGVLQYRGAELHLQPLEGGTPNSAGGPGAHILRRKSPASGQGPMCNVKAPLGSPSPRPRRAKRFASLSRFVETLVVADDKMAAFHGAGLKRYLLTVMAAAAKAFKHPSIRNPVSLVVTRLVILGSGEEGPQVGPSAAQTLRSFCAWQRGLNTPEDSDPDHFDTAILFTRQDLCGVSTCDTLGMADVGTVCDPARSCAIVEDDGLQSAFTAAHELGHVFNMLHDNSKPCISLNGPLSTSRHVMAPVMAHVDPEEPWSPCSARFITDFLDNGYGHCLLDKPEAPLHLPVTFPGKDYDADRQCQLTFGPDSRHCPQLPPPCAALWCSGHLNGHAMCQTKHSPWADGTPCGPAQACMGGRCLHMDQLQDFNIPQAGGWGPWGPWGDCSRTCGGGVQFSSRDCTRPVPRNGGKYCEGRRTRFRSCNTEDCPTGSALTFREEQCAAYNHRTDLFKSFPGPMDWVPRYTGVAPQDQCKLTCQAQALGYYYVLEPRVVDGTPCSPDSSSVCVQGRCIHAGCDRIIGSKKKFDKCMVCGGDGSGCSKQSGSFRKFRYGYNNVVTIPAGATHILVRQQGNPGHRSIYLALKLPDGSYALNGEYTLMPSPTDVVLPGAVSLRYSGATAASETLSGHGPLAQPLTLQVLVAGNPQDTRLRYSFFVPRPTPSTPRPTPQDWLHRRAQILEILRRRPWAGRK

## Cn1nccc1[C@@]1(CNC(=O)c2ccc(F)cc2-c2ccc(C(F)(F)F)cc2)NC(=O)NC1=O
[1]
  IC50: > 50 µM (not active)
[2]
  IC50: 23.4 µM (not active)
